In patent EP0391169A2, “Enantiomeric pure 7-(3-amino-1-pyrrolidinyl)-chinolon-and-naphthyridon carboxylic acids” (BAYER AG, priority 1989, dated 1990):
≈ marks a conversion by molar mass, not a printed value. Structures can show the parent of a compound that is named as a salt.

Columns and labels:
Experiment in all cases: MIC agar dilution test (Denley Multipoint Inoculator; Iso-Sensitest agar)
Assay type in all cases: cell-based
[1] = system: Serrratia marcescene 16040; details: 37° C, ca. 20 h, read-out: MHK-Werte
Excerpt: (§1) Die minimalen Hemmkonzentrationen (MHK) wurden per Reihenverdünnungsverfahren auf Iso-Sensitest Agar (Oxoid) bestimmt. Für jede Prüfsubstanz wurde eine Reihe von Agarplatten hergestellt, die bei jeweils doppelter Verdünnung abfallende Konzentrationen des Wirkstoffes enthielten. Die Agarplatten wurden mit einem Multipoint-Inokulator (Denley) beimpft. Zum Beimpfen wurden Übernachtkulturen der Erreger verwandt, die zuvor so verdünnt wurden, daß jeder Impfpunkt ca. 10^4 koloniebildende Partikel enthielt. Die beimpften Agarplatten wurden bei 37° C bebrütet, und das Keimwachstum wurde nach ca. 20 Stunden abgelesen. Der MHK-Wert (µg/ml) gibt die niedrigste Wirkstoffkonzentration an, bei der mit bloßem Auge kein Keimwachstum zu erkennen war.
(§2) In der nachfolgenden Tabelle sind die MHK-Werte einiger der erfindungsgemäßen Verbindungen im Vergleich zum entsprechenden Racemat aufgeführt: […]

Enteroc. faecalis 9790 = details: 37° C, ca. 20 h, read-out: MHK-Werte
Excerpt: as §1, §2

Proteus mir. 8223 = details: 37° C, ca. 20 h, read-out: MHK-Werte
Excerpt: as §1, §2

E. coli 455/7 = details: Escherichia coli, 37° C, ca. 20 h, read-out: MHK-Werte
Excerpt: as §1, §2

[2] = system: Pseudomonas aerog. Walter; details: 37° C, ca. 20 h, read-out: MHK-Werte
Excerpt: as §1, §2

[3] = system: Pseudomonas aerog. Ellsworth; details: 37° C, ca. 20 h, read-out: MHK-Werte
Excerpt: as §1, §2

Enteroc. faecalis 27101 = details: 37° C, ca. 20 h, read-out: MHK-Werte
Excerpt: as §1, §2

Proteus mir. 8175 = details: 37° C, ca. 20 h, read-out: MHK-Werte
Excerpt: as §1, §2

[4] = system: Providencia stuartei 12052; details: 37° C, ca. 20 h, read-out: MHK-Werte
Excerpt: as §1, §2

Morg. morg. 932 = details: 37° C, ca. 20 h, read-out: MHK-Werte
Excerpt: as §1, §2

E. coli Neumann = details: Escherichia coli, 37° C, ca. 20 h, read-out: MHK-Werte
Excerpt: as §1, §2

E. coli A261 = details: Escherichia coli, 37° C, ca. 20 h, read-out: MHK-Werte
Excerpt: as §1, §2

Providencia stuartei = Providencia stuartei (strain number not given), 37° C, ca. 20 h, read-out: MHK-Werte
Excerpt: as §1, §2

Proteus vulg. 1017 = details: 37° C, ca. 20 h, read-out: MHK-Werte
Excerpt: as §1, §2

Klebsiella pneum. 63 = details: 37° C, ca. 20 h, read-out: MHK-Werte
Excerpt: as §1, §2

Morg. morg. 11006 = details: 37° C, ca. 20 h, read-out: MHK-Werte
Excerpt: as §1, §2

Klebsiella pneum. 8085 = details: 37° C, ca. 20 h, read-out: MHK-Werte
Excerpt: as §1, §2

Staph. aurens 1756 = details: 37° C, ca. 20 h, read-out: MHK-Werte
Excerpt: as §1, §2

Staph. aurens FK 422 = details: 37° C, ca. 20 h, read-out: MHK-Werte
Excerpt: as §1, §2

Staph. aurens 133 = details: 37° C, ca. 20 h, read-out: MHK-Werte
Excerpt: as §1, §2

| Compound | MIC [1] | MIC (Enteroc. faecalis 9790) | MIC (Proteus mir. 8223) | MIC (E. coli 455/7) | MIC [2] | MIC [3] | MIC (Enteroc. faecalis 27101) | MIC (Proteus mir. 8175) | MIC [4] | MIC (Morg. morg. 932) | MIC (E. coli Neumann) | MIC (E. coli A261) | MIC (Providencia stuartei) | MIC (Proteus vulg. 1017) | MIC (Klebsiella pneum. 63) | MIC (Morg. morg. 11006) | MIC (Klebsiella pneum. 8085) | MIC (Staph. aurens 1756) | MIC (Staph. aurens FK 422) | MIC (Staph. aurens 133) |
| --- | --- | --- | --- | --- | --- | --- | --- | --- | --- | --- | --- | --- | --- | --- | --- | --- | --- | --- | --- | --- |
| Cc1c(F)c(N2CC[C@@H](N)C2)cc2c1c(=O)c(C(=O)O)cn2C1CC1 [Beispiel 6, 7-[R-(3-Amino)-1-pyrrolidinyl]-1-cyclopropyl-6-fluor-1,4-dihydro-5-methyl-4-oxo-3-chinolincarbonsäure-Hydrochlorid] | 4 µg/mL | 2 µg/mL | 8 µg/mL | 8 µg/mL | 2 µg/mL | 1 µg/mL | 1 µg/mL | 0.5 µg/mL | 8 µg/mL |  |  |  |  |  |  |  |  |  |  |  |
| N[C@@H]1CCN(c2c(F)cc3c(=O)c(C(=O)O)cn(C4CC4)c3c2F)C1 [Beispiel 4, 7-[R-(3-Amino)-1-pyrrolidinyl]-1-cyclopropyl-6,8-difluor-1,4-dihydro-4-oxo-3-chinolincarbonsäure-Hydrochlorid] | 1 µg/mL |  | 0.5 µg/mL | 0.5 µg/mL | 0.25 µg/mL |  |  |  | 0.5 µg/mL | 7.8 ng/mL | 7.8 ng/mL | 7.8 ng/mL | 1.5 ng/mL | 7.8 ng/mL |  |  |  |  |  |  |
| Cc1c(F)c(N2CC[C@H](N)C2)cc2c1c(=O)c(C(=O)O)cn2C1CC1 [Beispiel 5, 7-[S-(3-Amino)-1-pyrrolidinyl]-1-cyclopropyl-6-fluor-1,4-dihydro-5-methyl-4-oxo-3-chinolincarbonsäure-Hydrochlorid] | 2 µg/mL | 0.25 µg/mL | 4 µg/mL | 2 µg/mL | 0.5 µg/mL | 0.25 µg/mL |  |  | 4 µg/mL |  |  |  |  |  |  |  |  |  |  |  |
| N[C@H]1CCN(c2c(F)cc3c(=O)c(C(=O)O)cn(C4CC4)c3c2F)C1 [Beispiel 3, 7-[S-(3-Amino)-1-pyrrolidinyl]-1-cyclopropyl-6,8-difluor-1,4-dihydro-4-oxo-3-chinolincarbonsäure-Hydrochlorid] | 0.25 µg/mL |  | 0.25 µg/mL | 0.25 µg/mL |  | 0.62 µg/mL |  |  | 0.25 µg/mL | 3.9 ng/mL | 3.9 ng/mL | 3.9 ng/mL | 7.8 ng/mL | 3.9 ng/mL | 7.8 ng/mL | 7.8 ng/mL | 7.8 ng/mL |  |  |  |

Next, values leading:

| MIC [1] | MIC (Enteroc. faecalis 9790) | MIC (Proteus mir. 8223) | MIC (E. coli 455/7) | MIC [2] | MIC [3] | MIC (Enteroc. faecalis 27101) | MIC (Proteus mir. 8175) | MIC [4] | MIC (Morg. morg. 932) | MIC (E. coli Neumann) | MIC (E. coli A261) | MIC (Providencia stuartei) | MIC (Proteus vulg. 1017) | MIC (Klebsiella pneum. 63) | MIC (Morg. morg. 11006) | MIC (Klebsiella pneum. 8085) | MIC (Staph. aurens 1756) | MIC (Staph. aurens FK 422) | MIC (Staph. aurens 133) | Compound |
| --- | --- | --- | --- | --- | --- | --- | --- | --- | --- | --- | --- | --- | --- | --- | --- | --- | --- | --- | --- | --- |
| 0.25 µg/mL | 0.06 µg/mL | 0.25 µg/mL | 0.25 µg/mL | 0.06 µg/mL | 0.06 µg/mL | 0.03 µg/mL | 0.15 µg/mL | 0.25 µg/mL | 3.9 ng/mL | 1.9 ng/mL | 3.9 ng/mL | 7.8 ng/mL | 1.9 ng/mL | 7.8 ng/mL | 7.8 ng/mL | 7.8 ng/mL |  |  |  | N[C@@H]1CCN(c2c(F)cc3c(=O)c(C(=O)O)cn(C4CC4)c3c2Cl)C1 [Beispiel 2, 7-[R-(3-Amino)-1-pyrrolidinyl]-8-chlor-1-cyclopropyl-6-fluor-1,4-dihydro-4-oxo-3-chinolincarbonsäure -Hydrochlorid] |
| 0.25 µg/mL (≈ 0.683 µM) | 0.03 µg/mL (≈ 0.082 µM) | 0.25 µg/mL (≈ 0.683 µM) |  | 0.06 µg/mL (≈ 0.164 µM) | 0.03 µg/mL (≈ 0.082 µM) | 0.03 µg/mL (≈ 0.082 µM) | 0.0078 µg/mL (≈ 0.0213 µM) |  | 1.9 ng/mL (≈ 0.00519 µM) | 1.9 ng/mL (≈ 0.00519 µM) | 1.9 ng/mL (≈ 0.00519 µM) | 3.9 ng/mL (≈ 0.0107 µM) | 1.9 ng/mL (≈ 0.00519 µM) | 3.9 ng/mL (≈ 0.0107 µM) | 7.8 ng/mL (≈ 0.0213 µM) | 3.9 ng/mL (≈ 0.0107 µM) |  |  |  | NC1CCN(c2c(F)cc3c(=O)c(C(=O)O)cn(C4CC4)c3c2Cl)C1 (racemic) [*), 7-(3-Amino-1-pyrrolidinyl)-8-chlor-1-cyclopropyl-6-fluor-1,4-dihydro-4-oxo-3-chinolincarbonsäure, reference compound] |
|  | 0.03 µg/mL | 0.25 µg/mL |  | 0.03 µg/mL | 0.03 µg/mL | 0.03 µg/mL | 0.0078 µg/mL |  | 1.9 ng/mL | ≤ 0.4 ng/mL | 0.9 ng/mL | 1.9 ng/mL | ≤ 0.4 ng/mL | 3.9 ng/mL | 3.9 ng/mL | 3.9 ng/mL | 7.8 ng/mL | 7.8 ng/mL | 7.8 ng/mL | N[C@H]1CCN(c2c(F)cc3c(=O)c(C(=O)O)cn(C4CC4)c3c2Cl)C1 [Beispiel 1, 7-[S-(3-Amino)-1-pyrrolidinyl]-8-chlor-1-cyclopropyl-6-fluor-1,4-dihydro-4-oxo-3-chinolincarbonsäure-Hydrochlorid] |
| 0.5 µg/mL (≈ 1.43 µM) |  | 0.5 µg/mL (≈ 1.43 µM) | 0.25 µg/mL (≈ 0.716 µM) |  |  |  |  | 0.25 µg/mL (≈ 0.716 µM) | 3.9 ng/mL (≈ 0.0112 µM) | 3.9 ng/mL (≈ 0.0112 µM) | 3.9 ng/mL (≈ 0.0112 µM) | 7.8 ng/mL (≈ 0.0223 µM) | 3.9 ng/mL (≈ 0.0112 µM) | 7.8 ng/mL (≈ 0.0223 µM) | 7.8 ng/mL (≈ 0.0223 µM) | 7.8 ng/mL (≈ 0.0223 µM) |  |  |  | NC1CCN(c2c(F)cc3c(=O)c(C(=O)O)cn(C4CC4)c3c2F)C1 (racemic) [**), 7-(3-Amino-1-pyrrolidinyl)-6,8-difluor-1-cyclopropyl-1,4-dihydro-4-oxo-chinolincarbonsäure, reference compound] |
